Where “and” joins values, the source holds several entries; their conditions need not be identical. Equal values may be shown once.
System: 299254-011-R-J1-PDC complex spheroids viability
Experiment: Anticancer human tumor 299254-011-R-J1-PDC patient-derived melanoma cell line growth inhibition [GQUAD]
Settings: for viability, T/C: stronger effect = lower value
Text: DNA G-quadruplex Stabilizer Agents in Combinations in Complex Spheroids
A high-throughput screen of multi-cell type tumor spheroids was designed to identify active combinations of DNA G-quadruplex stabilizer agents and targeted small molecules. Complex spheroids include a stromal component modeled by human endothelial cells (HUVEC) and fibroblasts modeled by human mesenchymal stem cells (MSCs). The concentration ranges selected for each drug and investigational agent were based upon clinically achievable concentrations if the clinical Cmax of the agent was known.
Compounds. The drugs and investigational agents: pidnarulex (CX-5461; NSC782164), APTO-253 (NSC789042), BRACO-19 (NSC847499), peposertib (NSC802822), ceralasertib (NSC780249), elimusertib (NSC800525), camonsertib (NSC841442), AZD-1390 (NSC803789), olaparib (NSC753686), talazoparib (NSC767125), ART-558 (NSC835418), sotorasib (NSC818433), MRTX-1133 (NSC836407), SN-38 (NSC673596), topotecan (NSC609699), etoposide (NSC141540), doxorubicin (NSC123127), gemcitabine (NSC613327), 5-fluorouracil (NSC19893), paclitaxel (NSC125973), vemurafenib (NSC761431), panobinostat (NSC761190), R-306465 (JNJ-16241199; NSC773264), adavosertib (NSC754352), TP-3654 (NSC805149), carboplatin (NSC241240), KSQ-4279 (NSC840948), and staurosporine (NSC755774) were obtained from the National Cancer Institute (NCI) Developmental Therapeutics Program Chemical Repository (34). The FDA-approved anticancer drug set is available from the NCI Developmental Therapeutics Program. […] The stock solutions were prepared in dimethyl sulfoxide (DMSO, Sigma-Aldrich, St. Louis, MO, cat. D2650) at 800-fold the tested concentration and stored at -70 degrees C prior to their use. All drugs and investigational agents were tested over a range starting from a high concentration at or near the clinical Cmax and decreasing in half-log increments. If the clinical Cmax for an agent had not been determined, the highest concentration tested was 10 microM.
2.3 Cell Culture. All cells were maintained in an incubator at 37 degrees C and 5% CO2 with 95% humidity. The PDC lines were cultured according to standard operating procedures established by the NCI PDMR. All PDCs were thawed and cultured in Matrigel-coated flasks prepared with a working solution of 1X Ham's F-12 nutrient mix, without supplementation (Invitrogen, cat. 11765054), 100 U/mL penicillin-streptomycin (Invitrogen, cat. 15140122), and 2.5% Matrigel (Corning Inc., cat. 354248) for the first three passages. The 857933-349-R-J2-PDC line was cultured in 6C/Colon 1B media, which includes advanced DMEM/F-12 (Thermo Fisher Scientific, cat. 12634028), 10 mM HEPES (Thermo Fisher Scientific, cat. 15630080), 1X GlutaMAX supplement (Thermo Fisher Scientific, cat. 35050061), 0.1 mg/mL primocin (InvivoGen, cat. ant-pm-2), 10% defined fetal bovine serum, heat inactivated (HyClone Laboratories Inc., cat. SH30070.03HI), 50% L-WRN conditioned media (ATCC, cat. CRL-3276), 1.25 mM N-Acetyl-L-cysteine (Sigma-Aldrich, cat. A9165), 10 mM nicotinamide (Sigma-Aldrich, cat. N0636), 1X B-27 supplement (Thermo Fisher Scientific, cat. 17504044), 1X N-2 supplement (Thermo Fisher Scientific, cat. 17502048), 10 microM Y-27632 dihydrochloride (Tocris Bioscience, cat. 1254), and 50 ng/mL human EGF recombinant protein (Thermo Fisher Scientific, cat. PHG0311). The 485176-168-R4-J1-PDC line was cultured in Panc media, which includes all 6C/Colon 1B media components plus 100 ng/mL human FGF-10 (Thermo Fisher Scientific, cat. 100-26), 500 nM SB-431542 (Selleckchem, cat. S1067), and gastrin (Tocris, cat. 3006).
[…]
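Note: spheroids exposed to the agents for seven days before readout.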
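Throughout, for viability, T/C: percent viability relative to DMSO vehicle control wells = 100%.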

Q: Which results are given for `CC(C)n1c(=O)n(C)c2cnc3cc(F)c(-c4ccc(OCCCN5CCCCC5)nc4)cc3c21` + Cc1[nH]c2ccc(F)cc2c1-c1nc2c3cccnc3c3ncccc3c2[nH]1?
A: IC50 (curve of first compound, second compound 0.0316 µM): > 10 µM; IC50 (curve of first compound, second compound 0.1 µM): > 10 µM; IC50 (curve of first compound, second compound 0.316 µM): > 10 µM; IC50 (curve of first compound, second compound 1 µM): > 10 µM; IC50 (curve of first compound, second compound 3.16 µM): > 10 µM; IC50 (curve of first compound, second compound 10 µM): 9.86 µM; viability, T/C (second compound 0.0316 µM, first compound 0.0316 µM): 90.2%; viability, T/C (second compound 0.0316 µM, first compound 0.1 µM): 94.3%; viability, T/C (second compound 0.0316 µM, first compound 0.316 µM): 98.1%; viability, T/C (second compound 0.0316 µM, first compound 1 µM): 75.2%; viability, T/C (second compound 0.0316 µM, first compound 3.16 µM): 86.7%; viability, T/C (second compound 0.0316 µM, first compound 10 µM): 54.3%; viability, T/C (second compound 0.1 µM, first compound 0.0316 µM): 85.9%; viability, T/C (second compound 0.1 µM, first compound 0.1 µM): 103%; viability, T/C (second compound 0.1 µM, first compound 0.316 µM): 124%; viability, T/C (second compound 0.1 µM, first compound 1 µM): 96.5%; viability, T/C (second compound 0.1 µM, first compound 3.16 µM): 83.1%; viability, T/C (second compound 0.1 µM, first compound 10 µM): 58.3%; viability, T/C (second compound 0.316 µM, first compound 0.0316 µM): 106%; viability, T/C (second compound 0.316 µM, first compound 0.1 µM): 98.8%; viability, T/C (second compound 0.316 µM, first compound 0.316 µM): 105%; viability, T/C (second compound 0.316 µM, first compound 1 µM): 94.2%; viability, T/C (second compound 0.316 µM, first compound 3.16 µM): 84.4%; viability, T/C (second compound 0.316 µM, first compound 10 µM): 52.4%; viability, T/C (second compound 1 µM, first compound 0.0316 µM): 83%; viability, T/C (second compound 1 µM, first compound 0.1 µM): 97.7%; viability, T/C (second compound 1 µM, first compound 0.316 µM): 118%; viability, T/C (second compound 1 µM, first compound 1 µM): 115%; viability, T/C (second compound 1 µM, first compound 3.16 µM): 98.8%; viability, T/C (second compound 1 µM, first compound 10 µM): 58.1%; viability, T/C (second compound 3.16 µM, first compound 0.0316 µM): 89.9%; viability, T/C (second compound 3.16 µM, first compound 0.1 µM): 107%; viability, T/C (second compound 3.16 µM, first compound 0.316 µM): 89.5%; viability, T/C (second compound 3.16 µM, first compound 1 µM): 111%; viability, T/C (second compound 3.16 µM, first compound 3.16 µM): 94.4%; viability, T/C (second compound 3.16 µM, first compound 10 µM): 56.9%; viability, T/C (second compound 10 µM, first compound 0.0316 µM): 96.8%; viability, T/C (second compound 10 µM, first compound 0.1 µM): 107%; viability, T/C (second compound 10 µM, first compound 0.316 µM): 98%; viability, T/C (second compound 10 µM, first compound 1 µM): 84.8%; viability, T/C (second compound 10 µM, first compound 3.16 µM): 96.8%; viability, T/C (second compound 10 µM, first compound 10 µM): 49.5%

Q: With `CCCS(=O)(=O)Nc1ccc(F)c(C(=O)c2c[nH]c3ncc(-c4ccc(Cl)cc4)cc23)c1F` as the compound, how does the viability, T/C (compound 0.0316 µM) read?
A: Its viability, T/C is 130% and 120% and 109%.

Q: And the viability, T/C (compound 0.1 µM)?
A: The viability, T/C was 101% and 98.5% and 102%.

Q: What about the viability, T/C (compound 0.316 µM) of the same compound?
A: The viability, T/C was 92.2% and 107% and 95.9%.

Q: And the viability, T/C (compound 1 µM)?
A: The viability, T/C was 107% and 104% and 112%.

Q: And the viability, T/C (compound 3.16 µM)?
A: Its viability, T/C is 80.6% and 104% and 103%.

Q: What about the viability, T/C (compound 10 µM) of the same compound?
A: Its viability, T/C is 39.9% and 45.2% and 46.6%.

Q: And the IC50 (curve of compound)?
A: Its IC50 is 7.69 µM and 9.11 µM and 9.32 µM.

Q: With `C=CC(=O)N1CCN(c2nc(=O)n(-c3c(C)ccnc3C(C)C)c3nc(-c4c(O)cccc4F)c(F)cc23)C(C)C1` (stereo not given) as the compound, how does the viability, T/C (compound 0.0316 µM) read?
A: The viability, T/C was 79% and 95.8% and 88.2%.

Q: What about the viability, T/C (compound 0.1 µM) of the same compound?
A: Its viability, T/C is 57.3% and 82.7% and 63.5%.

Q: What about the viability, T/C (compound 0.316 µM) of the same compound?
A: The viability, T/C was 81% and 65.1% and 59%.

Q: And the viability, T/C (compound 1 µM)?
A: Its viability, T/C is 59.5% and 59.8% and 59%.

Q: And the viability, T/C (compound 3.16 µM)?
A: The viability, T/C was 60.7% and 61% and 69.7%.

Q: What about the viability, T/C (compound 10 µM) of the same compound?
A: Its viability, T/C is 68.5% and 69.6% and 66.1%.

Q: And the IC50 (curve of compound)?
A: Its IC50 is > 10 µM.

Q: How did the viability, T/C (compound 0.0316 µM) turn out when `CC(C)(O)C1CCC(Nc2ccc3ncc(-c4cccc(C(F)(F)F)c4)n3n2)CC1` (stereo not given) was run?
A: Its viability, T/C is 108% and 89.2% and 122%.

Q: And the viability, T/C (compound 0.1 µM)?
A: The viability, T/C was 113% and 90% and 91.5%.

Q: And the viability, T/C (compound 0.316 µM)?
A: Its viability, T/C is 91.8% and 99.5% and 99.2%.

Q: And the viability, T/C (compound 1 µM)?
A: Its viability, T/C is 98% and 96.9% and 84.3%.

Q: What about the viability, T/C (compound 3.16 µM) of the same compound?
A: The viability, T/C was 95.5% and 102% and 70.9%.

Q: And the viability, T/C (compound 10 µM)?
A: The viability, T/C was 119% and 110% and 103%.

Q: And the IC50 (curve of compound)?
A: The IC50 was > 10 µM.

Q: Which viability, T/C (compound 0.0316 µM) does the source give for `COc1cc(C2c3cc4c(cc3C(OC3OC5COC(C)OC5C(O)C3O)C3COC(=O)C23)OCO4)cc(OC)c1O` (stereo not given) here?
A: The viability, T/C was 102% and 90.8% and 122%.

Q: And the viability, T/C (compound 0.1 µM)?
A: Its viability, T/C is 91.4% and 97.2% and 87.9%.

Q: What about the viability, T/C (compound 0.316 µM) of the same compound?
A: Its viability, T/C is 85.3% and 106% (2×).

Q: And the viability, T/C (compound 1 µM)?
A: The viability, T/C was 97.1% and 91.9% and 92.2%.

Q: And the viability, T/C (compound 3.16 µM)?
A: The viability, T/C was 75.5% and 101% and 99%.

Q: What about the viability, T/C (compound 10 µM) of the same compound?
A: Its viability, T/C is 94.6% and 84.8% and 92.6%.

Q: And the IC50 (curve of compound)?
A: The IC50 was > 10 µM.

Q: Which viability, T/C (compound 0.316 µM) does the source give for `Cc1cnc(CNC(=O)c2c(=O)c3ccc(N4CCCN(C)CC4)nc3n3c2sc2ccccc23)cn1` here?
A: Its viability, T/C is 100% [middle of 12 runs].

Q: With `CCc1c2c(nc3ccc(O)cc13)-c1cc3c(c(=O)n1C2)COC(=O)[C@]3(O)CC` as the compound, how does the viability, T/C (compound 0.000999 µM) read?
A: Its viability, T/C is 94.3% and 102% and 120%.

Q: And the viability, T/C (compound 0.00316 µM)?
A: Its viability, T/C is 83.9% and 104% and 97.4%.

Q: What about the viability, T/C (compound 0.00999 µM) of the same compound?
A: Its viability, T/C is 87.7% and 72.2% and 92.2%.

Q: And the viability, T/C (compound 0.0316 µM)?
A: The viability, T/C was 64.8% and 104% and 70.9%.

Q: What about the viability, T/C (compound 0.0999 µM) of the same compound?
A: The viability, T/C was 80% and 86.2% and 77.4%.

Q: And the viability, T/C (compound 0.316 µM)?
A: The viability, T/C was 89.8% and 84.2% and 73.6%.

Q: What about the IC50 (curve of compound) of the same compound?
A: Its IC50 is > 0.316 µM.

Q: Which results are given for `COc1cccc2c1C(=O)c1c(O)c3c(c(O)c1C2=O)CC(O)(C(=O)CO)CC3OC1CC(N)C(O)C(C)O1` (stereo not given)?
A: viability, T/C (compound 0.0316 µM): 107% and 92.6% and 98%; viability, T/C (compound 0.1 µM): 99.6% and 107% and 89.3%; viability, T/C (compound 0.316 µM): 88.1% and 81.5% and 113%; viability, T/C (compound 1 µM): 75.9% and 86.5% and 81.4%; viability, T/C (compound 3.16 µM): 60.2% and 77% and 70.5%; viability, T/C (compound 10 µM): 21.2% and 28% and 20.3%; IC50 (curve of compound): 3.89 µM and 5.82 µM and 4.94 µM
